This note sets out measurements from patent US12404279B2, “Deubiquitinase inhibitors and methods of use thereof” (Molecure S.A., priority 2021, dated 2025).

As a reminder, the pIC50 is −log10 of the IC50, conventionally taken in molar units. Low readings indicate a high IC50, high ones a low IC50. One may read the inhibition as the drop in the measured response relative to a control, in per cent.

pIC50: −log10 of the molar value. Counter-ions that a name gives are not always drawn.

In the first assay the target is full-length USP7 (Homo sapiens (Human), UniProt Q93009). In words: Enzymatic assay to determine IC50 of USP7 inhibitors (Ubiquitin-Rhodamine 110 cleavage). The format is biochemical. To be noted: 0.5 nM USP7, 0.5 μM Ubiquitin-Rhodamine 110, 45 min at 37° C. Put shortly: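 Full-length USP7 (0.5 nM) in 50 mM HEPES pH 7.5, 150 mM NaCl, 1 mM DTT, 1 mg/ml BSA, 0.05% Tween20 was preincubated 15 min with DTT at room temperature before compound addition.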
full-length USP7, sequence (Q93009 whole entry): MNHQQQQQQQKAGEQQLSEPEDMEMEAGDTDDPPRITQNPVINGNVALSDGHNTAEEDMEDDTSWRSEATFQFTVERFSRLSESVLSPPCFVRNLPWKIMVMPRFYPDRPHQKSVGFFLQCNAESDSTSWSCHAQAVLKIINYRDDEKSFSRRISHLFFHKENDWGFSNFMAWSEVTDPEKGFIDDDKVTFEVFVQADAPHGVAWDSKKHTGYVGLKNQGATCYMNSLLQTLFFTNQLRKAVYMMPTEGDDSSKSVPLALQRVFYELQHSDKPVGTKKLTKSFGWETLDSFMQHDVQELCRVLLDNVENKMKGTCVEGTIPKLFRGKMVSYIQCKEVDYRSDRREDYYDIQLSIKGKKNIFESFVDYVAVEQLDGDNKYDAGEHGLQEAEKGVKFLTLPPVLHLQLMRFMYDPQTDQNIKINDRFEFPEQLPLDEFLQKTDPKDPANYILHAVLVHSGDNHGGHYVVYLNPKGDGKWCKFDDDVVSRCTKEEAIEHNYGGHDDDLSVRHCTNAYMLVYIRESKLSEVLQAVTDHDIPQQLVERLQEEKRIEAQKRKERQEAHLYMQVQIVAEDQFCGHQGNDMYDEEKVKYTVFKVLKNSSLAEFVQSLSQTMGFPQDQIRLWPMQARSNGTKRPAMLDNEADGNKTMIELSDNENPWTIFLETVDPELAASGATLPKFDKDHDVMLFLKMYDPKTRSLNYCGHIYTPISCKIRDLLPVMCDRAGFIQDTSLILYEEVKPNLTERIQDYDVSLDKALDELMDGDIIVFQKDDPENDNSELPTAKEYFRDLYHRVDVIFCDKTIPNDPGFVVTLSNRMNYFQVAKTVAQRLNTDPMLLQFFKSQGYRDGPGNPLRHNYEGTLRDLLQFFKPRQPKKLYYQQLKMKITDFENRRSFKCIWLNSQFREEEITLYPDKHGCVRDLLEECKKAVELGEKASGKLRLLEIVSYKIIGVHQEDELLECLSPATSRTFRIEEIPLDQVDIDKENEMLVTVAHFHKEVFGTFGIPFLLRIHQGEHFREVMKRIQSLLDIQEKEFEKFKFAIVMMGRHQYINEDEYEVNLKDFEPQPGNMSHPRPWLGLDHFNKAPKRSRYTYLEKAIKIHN
On to `Cc1cc(C(F)(F)F)nc(-c2ccnc3cc(CN4C(=O)C5C(C4=O)C5(C)C)sc23)c1C(=O)N1CCC(N)CC1` (stereo not shown) [Example 112, 3-((7-(3-(4-aminopiperidine-1-carbonyl)-4-methyl-6-(trifluoromethyl)pyridin-2-yl)thieno[3,2-b]pyridin-2-yl)methyl)-6,6-dimethyl-3-azabicyclo[3.1.0]hexane-2,4-dione dihydrochloride], for which the pIC50 is > 6.30.
Still for that read-out and setting: the value for `Cc1cc(C(F)(F)F)nc(-c2ccnc3cc(CN4C(=O)C5C(C4=O)C5(C)C)sc23)c1C(=O)N1CC[C@H](O)C1` (stereo partly drawn) [Example 113, 3-((7-(3-((S)-3-hydroxypyrrolidine-1-carbonyl)-4-methyl-6-(trifluoromethyl)pyridin-2-yl)thieno[3,2-b]pyridin-2-yl)methyl)-6,6-dimethyl-3-azabicyclo[3.1.0]hexane-2,4-dione hydrochloride] was > 6.30; that for `Cc1cc(C(F)(F)F)nc(-c2ccnc3cc(CN4C(=O)C5C(C4=O)C5(C)C)sc23)c1C(=O)N1CC[C@H](F)C1` (stereo partly drawn) [Example 114, 3-((7-(3-((S)-3-fluoropyrrolidine-1-carbonyl)-4-methyl-6-(trifluoromethyl)pyridin-2-yl)thieno[3,2-b]pyridin-2-yl)methyl)-6,6-dimethyl-3-azabicyclo[3.1.0]hexane-2,4-dione hydrochloride] was > 6.30; that for `Cc1cc(C(F)(F)F)nc(-c2ccnc3cc(CN4C(=O)C5C(C4=O)C5(C)C)sc23)c1C(=O)N1CC[C@H](CN)C1` (stereo partly drawn) [Example 115, 3-((7-(3-((R)-3-(aminomethyl)pyrrolidine-1-carbonyl)-4-methyl-6-(trifluoromethyl)pyridin-2-yl)thieno[3,2-b]pyridin-2-yl)methyl)-6,6-dimethyl-3-azabicyclo[3.1.0]hexane-2,4-dione dihydrochloride] was 6.00 to 6.30.
Still for that read-out and setting: the value for `Cc1cc(C(F)(F)F)nc(-c2ccnc3cc(CN4C(=O)C5C(C4=O)C5(C)C)sc23)c1C(=O)N1CC[C@@H]2CNC[C@@H]21` (stereo partly drawn) [Example 116, 6,6-dimethyl-3-((7-(4-methyl-3-((3aR,6aR)-octahydropyrrolo[3,4-b]pyrrole-1-carbonyl)-6-(trifluoromethyl)pyridin-2-yl)thieno[3,2-b]pyridin-2-yl)methyl)-3-azabicyclo[3.1.0]hexane-2,4-dione dihydrochloride] was > 6.30; that for `Cc1cc(C(F)(F)F)nc(-c2ccnc3cc(CN4C(=O)C5C(C4=O)C5(C)C)sc23)c1C(=O)N1C[C@@H](N)[C@H](F)C1` (stereo partly drawn) [Example 117, 3-((7-(3-((3R,4R)-3-amino-4-fluoropyrrolidine-1-carbonyl)-4-methyl-6-(trifluoromethyl)pyridin-2-yl)thieno[3,2-b]pyridin-2-yl)methyl)-6,6-dimethyl-3-azabicyclo[3.1.0]hexane-2,4-dione dihydrochloride] was > 6.30; that for `Cc1cc(Cl)cc(-c2ccnc3cc(CN4C(=O)C5C(C4=O)C5(C)C)sc23)c1NC(=O)C1CCNCC1` (stereo not shown) [Example 118, N-(4-chloro-2-(2-((6,6-dimethyl-2,4-dioxo-3-azabicyclo[3.1.0]hexan-3-yl)methyl)thieno[3,2-b]pyridin-7-yl)-6-methylphenyl)piperidine-4-carboxamide 2,2,2-trifluoroacetate] was > 6.30.
With `Cc1nc(Cl)cc(-c2ccnc3cc(CN4C(=O)C5C(C4=O)C5(C)C)sc23)c1NC(=O)[C@@H]1CCNC1` (stereo partly drawn) [Example 120, (3R)—N-(6-chloro-4-(2-((6,6-dimethyl-2,4-dioxo-3-azabicyclo[3.1.0]hexan-3-yl)methyl)thieno[3,2-b]pyridin-7-yl)-2-methylpyridin-3-yl)pyrrolidine-3-carboxamide 2,2,2-trifluoroacetate], the pIC50 is 5.00 to 6.00.
Still for that read-out and setting: in the case of `Cc1cc(Cl)nc(-c2ccnc3cc(CN4C(=O)C5C(C4=O)C5(C)C)sc23)c1N1CCCNC1=O` (stereo not shown) [Example 121, 3-((7-(6-chloro-4-methyl-3-(2-oxotetrahydropyrimidin-1(2H)-yl)pyridin-2-yl)thieno[3,2-b]pyridin-2-yl)methyl)-6,6-dimethyl-3-azabicyclo[3.1.0]hexane-2,4-dione 2,2,2-trifluoroacetate] it was 6.00 to 6.30; in that of `Cc1cc(Cl)nc(-c2ccnc3cc(CN4C(=O)C5C(C4=O)C5(C)C)sc23)c1NC1CNC1` (stereo not shown) [Example 122, 3-((7-(3-(azetidin-3-ylamino)-6-chloro-4-methylpyridin-2-yl)thieno[3,2-b]pyridin-2-yl)methyl)-6,6-dimethyl-3-azabicyclo[3.1.0]hexane-2,4-dione tetrahydrochloride], > 6.30.
Still for that read-out and setting: the value for `Cc1cc(Cl)nc(-c2ccnc3cc(CN4C(=O)C5C(C4=O)C5(C)C)sc23)c1NC1CC(F)(F)C1` (stereo not shown) [Example 123, 3-((7-(6-chloro-3-((3,3-difluorocyclobutyl)amino)-4-methylpyridin-2-yl)thieno[3,2-b]pyridin-2-yl)methyl)-6,6-dimethyl-3-azabicyclo[3.1.0]hexane-2,4-dione 2,2,2-trifluoroacetate] was 6.00 to 6.30.
Take `Cc1cc(Cl)nc(-c2ccnc3cc(CN4C(=O)C5C(C4=O)C5(C)C)sc23)c1NC1CCNC1` (stereo not shown) [Example 126, 3-((7-(6-chloro-4-methyl-3-(pyrrolidin-3-ylamino)pyridin-2-yl)thieno[3,2-b]pyridin-2-yl)methyl)-6,6-dimethyl-3-azabicyclo[3.1.0]hexane-2,4-dione tetrahydrochloride]: the pIC50 is > 6.30.
Same read-out and setting: the value for `Cc1cc(Cl)nc(-c2ccnc3cc(CN4C(=O)C5C(C4=O)C5(C)C)sc23)c1NC1CCNCC1` (stereo not shown) [Example 127, 3-((7-(6-chloro-4-methyl-3-(piperidin-4-ylamino)pyridin-2-yl)thieno[3,2-b]pyridin-2-yl)methyl)-6,6-dimethyl-3-azabicyclo[3.1.0]hexane-2,4-dione tetrahydrochloride] was > 6.30.
`Cc1cc(C(F)(F)F)nc(-c2ccnc3cc(CN4C(=O)C5C(C4=O)C5(C)C)sc23)c1NC1CCNCC1` (stereo not shown) [Example 128, 6,6-dimethyl-3-((7-(4-methyl-3-(piperidin-4-ylamino)-6-(trifluoromethyl)pyridin-2-yl)thieno[3,2-b]pyridin-2-yl)methyl)-3-azabicyclo[3.1.0]hexane-2,4-dione tetrahydrochloride]: the pIC50 is > 6.30.
The same measure, in the same setting: in the case of `Cc1cc(Cl)nc(-c2ccnc3cc(CN4C(=O)C5C(C4=O)C5(C)C)sc23)c1NC1CC2(CNC2)C1` (stereo not shown) [Example 131, 3-((7-(3-((2-azaspiro[3.3]heptan-6-yl)amino)-6-chloro-4-methylpyridin-2-yl)thieno[3,2-b]pyridin-2-yl)methyl)-6,6-dimethyl-3-azabicyclo[3.1.0]hexane-2,4-dione hydrobromide] it was > 6.30; in that of `Cc1cc(C(F)(F)F)nc(-c2ccnc3cc(CN4C(=O)C5C(C4=O)C5(C)C)sc23)c1NC1CC2(CNC2)C1` (stereo not shown) [Example 132, 3-((7-(3-((2-azaspiro[3.3]heptan-6-yl)amino)-4-methyl-6-(trifluoromethyl)pyridin-2-yl)thieno[3,2-b]pyridin-2-yl)methyl)-6,6-dimethyl-3-azabicyclo[3.1.0]hexane-2,4-dione 2,2,2-trifluoroacetate], > 6.30; in that of `Cc1cc(C)c(NC(=O)C2CNC2)c(-c2ccnc3cc(CN4C(=O)C5C(C4=O)C5(C)C)sc23)n1` (stereo not shown) [Example 133, N-(2-(2-((6,6-dimethyl-2,4-dioxo-3-azabicyclo[3.1.0]hexan-3-yl)methyl)thieno[3,2-b]pyridin-7-yl)-4,6-dimethylpyridin-3-yl)azetidine-3-carboxamide 2,2,2-trifluoroacetate], 5.00 to 6.00.
Still for that read-out and setting: the value for `Cc1cc(C(F)(F)F)nc(-c2ccnc3cc(CN4C(=O)C5C(C4=O)C5(C)C)sc23)c1C(=O)N1[C@@H](C)CNC[C@@H]1C` (stereo partly drawn) [Example 141, 3-((7-(3-((2S,6S)-2,6-dimethylpiperazine-1-carbonyl)-4-methyl-6-(trifluoromethyl)pyridin-2-yl)thieno[3,2-b]pyridin-2-yl)methyl)-6,6-dimethyl-3-azabicyclo[3.1.0]hexane-2,4-dione 2,2,2-trifluoroacetate] was > 6.30.

Staying with this assay, now noted: at 1 μM of the test compound; given where IC50 not determined yet; read-out: percent value of inhibition of USP7 activity.
Take `Cc1cc(-c2ccnc3cc(CN4C(=O)C5C(C4=O)C5(C)C)sc23)c(O[C@H]2CCCNC2)cn1` (stereo partly drawn) [Example 119, 6,6-dimethyl-3-((7-(2-methyl-5-(((S)-piperidin-3-yl)oxy)pyridin-4-yl)thieno[3,2-b]pyridin-2-yl)methyl)-3-azabicyclo[3.1.0]hexane-2,4-dione 2,2,2-trifluoroacetate]: the inhibition at 1 µM was < 20%.
On the same count and under the same terms, the value for `Cc1cc(C(F)(F)F)nc(-c2ccnc3cc(CN4C(=O)C5C(C4=O)C5(C)C)sc23)c1C(=O)N1CC[C@H](C(C)N)C1` (stereo partly drawn) [Example 138, 3-((7-(3-((3S)-3-(1-aminoethyl)pyrrolidine-1-carbonyl)-4-methyl-6-(trifluoromethyl)pyridin-2-yl)thieno[3,2-b]pyridin-2-yl)methyl)-6,6-dimethyl-3-azabicyclo[3.1.0]hexane-2,4-dione trihydrochloride] was 50 to 70%.

The assay is the same for the next values; noted with them: read-out: percent value of inhibition of USP7 activity.
Turning to `Cc1cc(C)c(NC(=O)C2CCNCC2)c(-c2ccnc3cc(CN4C(=O)C5C(C4=O)C5(C)C)sc23)n1` (stereo not shown) [Example 134, N-(2-(2-((6,6-dimethyl-2,4-dioxo-3-azabicyclo[3.1.0]hexan-3-yl)methyl)thieno[3,2-b]pyridin-7-yl)-4,6-dimethylpyridin-3-yl)piperidine-4-carboxamide 2,2,2-trifluoroacetate], the inhibition at 1 µM was < 20%.
Same read-out and setting: in the case of `Cc1cc(Cl)nc(-c2ccnc3cc(CN4C(=O)C5C(C4=O)C5(C)C)sc23)c1C(=O)N1CCNCC1` (stereo not shown) [Example 135, 3-((7-(6-chloro-4-methyl-3-(piperazine-1-carbonyl)pyridin-2-yl)thieno[3,2-b]pyridin-2-yl)methyl)-6,6-dimethyl-3-azabicyclo[3.1.0]hexane-2,4-dione 2,2,2-trifluoroacetate] it was < 20%.
